Laboratory results: US8217072B2, “Salinosporamides and methods for use thereof” (The Regents of the University of California, priority 2003, dated 2012)

Tests used:
[1] = test system: Candida albicans(amphoterocin B resistant); assay: Antifungal screening, Candida albicans (amphoterocin B resistant); format: cell-based; design: key: NSA = no significant activity
[2] = test system: Staphylococcus aureus (methecillin resistant); assay: Antibacterial screening, Staphylococcus aureus; format: cell-based; design: key to IC50: NSA = no significant activity
[3] = test system: Enterococcus faecium (vanomycin resistant); assay: Antibacterial screening, Enterococcus faecium; format: cell-based; design: key to IC50: NSA = no significant activity
[4] = Solubility in organic solvents; settings: CHCl3, methanol, and other polar solvents like DMSO, acetone, acetonitrile, benzene, pyridine, N,N-dimethylformamide

What does the source list for `C[C@@]12OC(=O)[C@]1([C@@H](O)[C@@H]1C=CCCC1)NC(=O)[C@@H]2CCCl` [Salinosporamide A]?
IC50 [1]: NSA*; antibacterial activity [2]: no antibacterial activity; IC50 ([2]; methecillin resistant): NSA*; antibacterial activity [3]: no antibacterial activity; IC50 ([3]; vanomycin resistant): NSA*; solubility [4]: soluble
